Results as given in patent publication US8198307B2, “Imidazole derivatives having aryl piperidine substituent, method for preparation thereof and pharmaceutical compositions containing same” (Korea Research Institute of Chemical Technology, priority 2007, dated 2012).

The molecules below were run against T1, MCH R1 (melanine-concentrating hormone receptor-1) (Homo sapiens, UniProt Q99705) (assay: Inhibitory effects on MCH R1 binding (Eu-MCH time-resolved fluorescence binding assay)). Conditions: concentration inhibiting the binding of MCH (Eu-MCH, 2 nM) to MCH R1 by 50% in vitro; TRF readout; test range 1 nM to 10 μM; read-out: IC50.
T1 construct: purchased Euroscreen, Gosselies, Belgium
T1 sequence (Q99705 whole entry, species assumed): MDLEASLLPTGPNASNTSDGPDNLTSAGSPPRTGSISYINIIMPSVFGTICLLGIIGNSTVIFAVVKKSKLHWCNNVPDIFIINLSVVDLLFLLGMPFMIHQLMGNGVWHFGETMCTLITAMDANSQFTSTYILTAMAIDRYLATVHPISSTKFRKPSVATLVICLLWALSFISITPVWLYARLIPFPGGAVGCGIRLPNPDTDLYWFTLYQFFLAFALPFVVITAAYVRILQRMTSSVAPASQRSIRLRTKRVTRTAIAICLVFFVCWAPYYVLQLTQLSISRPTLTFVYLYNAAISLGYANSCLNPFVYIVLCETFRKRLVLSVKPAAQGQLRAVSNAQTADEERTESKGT
Method: First, MCH R1 (melanine-concentrating hormone receptor-1; Euroscreen, Gosselies, Belgium), 1 μM Europium-labeled melanine-concentrating hormone (Eu-MCH, PerkinElmer, Turku, Finland) and 1 mM melanine-concentrating hormone (MCH, #070-47, Phoenix, Belmont Calif., USA) were kept at 4° C. for ready use. 1 μM Eu-MCH and 1 mM MCH were diluted with an experimental solution (25 mM HEPES pH 7.4, 5 mM MgCl2, 1 mM CaCl2 and 0.5% (w/w) BSA) to 8 nM (final reaction concentration: 2 nM) and 2 μM (final reaction concentration: 0.5 μM), respectively. The compounds prepared in the Examples (“Test compounds”) were dissolved in the experimental solution in concentration of 4 nM to 40 μM (final reaction concentration: 1 nM to 10 μM). MCH R1 (200 assays/vial) was homogeneously dispersed in the experimental solution.
Then, 100 μl/well of the following reaction mixture was added to the wells of a microplate (Multiwell 96 well filter plates PN5020, Pall Co., Ann Arbor, Mich., USA) equipped with a filter paper, with an 8-channel pipette (multi 8-channel, Eppendorf, Hamburg, Germany). Specifically, to the wells of a non-specific binding control group, 25 μl of Eu-MCH, 50 μl of MCH R1 and 25 μl of MCH were added. Further, 25 μl of the experimental solution supplemented with 10% (w/w) of DMSO, 25 μl of Eu-MCH and 50 μl of MCH R1 were added to the wells of a total binding control group, while 25 μl of the test compounds, 25 μl Eu-MCH and 50 μl of MCH R1 were added to the wells of an experimental group. Subsequently, the microplate was shaken gently for 15 seconds and kept at room temperature for 90 minutes to allow the reaction to take place. Then, the plate was washed with a microplate washer (EMBLA, Molecular Devices) by washing three times with 300 μl of a washing solution (25 mM HEPES pH 7.4, 5 mM MgCl2, 1 mM CaCl2) to remove the residual unreacted Eu-MCH. Moisture was removed from the bottom of the wells and 150 μl of dissociation solution (DELFIA Enhancement solution, PerkinElmer, Turku, Finland) was added to each well, followed by keeping the plate at room temperature for 2 to 4 hours. Subsequently, time-resolved fluorescence (TRF) values were measured with a multilabel counter (Victor2, PerkinElmer, Turku, Finland) (emission wave length: 615 nm, excitation wave length: 340 nm). The inhibition rate based on the time-resolved fluorescence data was calculated using the following Equation (I). Inhibition rate of time-resolved fluorescence (%)=[(Average TRF value of the total binding group−Time-resolved fluorescence value of the test compound)/(Average TRF value of the total binding group−Average TRF value of the non-specific binding group)]×100 (I)

Row | IC50 [nM] | Structure (SMILES)
1 | 1 | CC(=O)Nc1cccc(C2CCN(CCCCn3c(-c4ccc(Cl)cc4)nc4ccccc43)CC2)c1 [Example 6, 2-(4-chlorophenyl)-1-{4-[4-(3-acetylaminophenyl)piperidin-1-yl]butyl}-1H-benzimidazole]
2 | 32 | CC(=O)Nc1cccc(C2CCN(CCCCCn3c(-c4ccc(Cl)cc4)nc4ccccc43)CC2)c1 [Example 8, 2-(4-chlorophenyl)-1-{5-[4-(3-acetylaminophenyl)piperidin-1-yl]pentyl}-1H-benzimidazole]
3 | 10 | CC(=O)Nc1cccc(C2CCN(CCCn3c(-c4ccccc4Cl)nc4ccccc43)CC2)c1 [Example 9, 2-(2-chlorophenyl)-1-{3-[4-(3-acetylaminophenyl)piperidin-1-yl]propyl}-1H-benzimidazole]
4 | 5 | CC(=O)Nc1cccc(C2CCN(CCCn3c(-c4cccc(Cl)c4)nc4ccccc43)CC2)c1 [Example 10, 2-(3-chlorophenyl)-1-{3-[4-(3-acetylaminophenyl)piperidin-1-yl]propyl}-1H-benzimidazole]
5 | 1 | CC(=O)Nc1cccc(C2CCN(CCCn3c(-c4cccc(Br)c4)nc4ccccc43)CC2)c1 [Example 13, 2-(3-bromophenyl)-1-{3-[4-(3-acetylaminophenyl)piperidin-1-yl]propyl}-1H-benzimidazole]
6 | > 10000 | CC(=O)Nc1cccc(C2CCN(CCCn3c(-c4ccccc4I)nc4ccccc43)CC2)c1 [Example 14, 2-(2-iodophenyl)-1-{3-[4-(3-acetylaminophenyl)piperidin-1-yl]propyl}-1H-benzimidazole]
7 | 10 | CC(=O)Nc1cccc(C2CCN(CCCn3c(-c4ccccc4F)nc4ccccc43)CC2)c1 [Example 15, 2-(2-fluorophenyl)-1-{3-[4-(3-acetylaminophenyl)piperidin-1-yl]propyl}-1H-benzimidazole]
8 | 3 | CC(=O)Nc1cccc(C2CCN(CCCn3c(-c4ccc(Cl)cc4Cl)nc4ccccc43)CC2)c1 [Example 16, 2-(2,4-dichlorophenyl)-1-{3-[4-(3-acetylaminophenyl)piperidin-1-yl]propyl}-1H-benzimidazole]
9 | 7 | COc1cccc(-c2nc3ccccc3n2CCCN2CCC(c3cccc(NC(C)=O)c3)CC2)c1 [Example 18, 2-(3-methoxyphenyl)-1-{3-[4-(3-acetylaminophenyl)piperidin-1-yl]propyl}-1H-benzimidazole]
10 | 5 | CC(=O)Nc1cccc(C2CCN(CCCn3c(-c4ccccc4)nc4cc(C)c(C)cc43)CC2)c1 [Example 21, 2-phenyl-1-{3-[4-(3-acetylaminophenyl)piperidin-1-yl]propyl}-5,6-dimethyl-1H-benzimidazole]
11 | 200 | CC(=O)Nc1cccc(C2CCN(CCCn3c(-c4ccc(Cl)cc4)nc4cc(C)c(C)cc43)CC2)c1 [Example 22, 2-(4-chlorophenyl)-1-{3-[4-(3-acetylaminophenyl)piperidin-1-yl]propyl}-5,6-dimethyl-1H-benzimidazole]
12 | 16 | CC(=O)Nc1cccc(C2CCN(CCCn3c(-c4ccccc4)nc4ccc(C)cc43)CC2)c1 [Example 23, 2-phenyl-1-{3-[4-(3-acetylaminophenyl)piperidin-1-yl]propyl}-6-methyl-1H-benzimidazole]
13 | 7 | CC(=O)Nc1cccc(C2CCN(CCCn3c(-c4ccccc4)nc4ccc(F)cc43)CC2)c1 [Example 26, 2-phenyl-1-{3-[4-(3-acetylaminophenyl)piperidin-1-yl]propyl}-6-fluoro-1H-benzimidazole]
14 | 55 | COc1ccc2nc(-c3ccc(Cl)cc3)n(CCCN3CCC(c4cccc(NC(C)=O)c4)CC3)c2c1 [Example 28, 2-(4-chlorophenyl)-1-{3-[4-(3-acetylaminophenyl)piperidin-1-yl]propyl}-6-methoxy-1H-benzimidazole]

The next lines start with the molecule.

Row | Structure (SMILES) | IC50 [nM]
15 | CC(=O)Nc1cccc(C2CCN(CCn3c(-c4ccccc4)nc4ccccc43)CC2)c1 [Example 1, 2-phenyl-1-{2-[4-(3-acetylaminophenyl)piperidin-1-yl]ethyl}-1H-benzimidazole] | > 10000
16 | CC(=O)Nc1cccc(C2CCN(CCn3c(-c4ccc(Cl)cc4)nc4ccccc43)CC2)c1 [Example 2, 2-(4-chlorophenyl)-1-{2-[4-(3-acetylaminophenyl)piperidin-1-yl]ethyl}-1H-benzimidazole] | 6000
17 | CC(=O)Nc1cccc(C2CCN(CCCn3c(-c4ccccc4)nc4ccccc43)CC2)c1 [Example 3, 2-phenyl-1-{3-[4-(3-acetylaminophenyl)piperidin-1-yl]propyl}-1H-benzimidazole] | 2
18 | CC(=O)Nc1cccc(C2CCN(CCCn3c(-c4ccc(Cl)cc4)nc4ccccc43)CC2)c1 [Example 4, 2-(4-chlorophenyl)-1-{3-[4-(3-acetylaminophenyl)piperidin-1-yl]propyl}-1H-benzimidazole] | 1
19 | CC(=O)Nc1cccc(C2CCN(CCCCn3c(-c4ccccc4)nc4ccccc43)CC2)c1 [Example 5, 2-phenyl-1-{4-[4-(3-acetylaminophenyl)piperidin-1-yl]butyl}-1H-benzimidazole] | 29
20 | CC(=O)Nc1cccc(C2CCN(CCCCCn3c(-c4ccccc4)nc4ccccc43)CC2)c1 [Example 7, 2-phenyl-1-{5-[4-(3-acetylaminophenyl)piperidin-1-yl]pentyl}-1H-benzimidazole] | 74
21 | CC(=O)Nc1cccc(C2CCN(CCCn3c(-c4ccc(Br)cc4)nc4ccccc43)CC2)c1 [Example 11, 2-(4-bromophenyl)-1-{3-[4-(3-acetylaminophenyl)piperidin-1-yl]propyl}-1H-benzimidazole] | 5
22 | CC(=O)Nc1cccc(C2CCN(CCCn3c(-c4ccc(Cl)c(Cl)c4)nc4ccccc43)CC2)c1 [Example 12, 2-(3,4-dichlorophenyl)-1-{3-[4-(3-acetylaminophenyl)piperidin-1-yl]propyl}-1H-benzimidazole] | 24
23 | COc1ccccc1-c1nc2ccccc2n1CCCN1CCC(c2cccc(NC(C)=O)c2)CC1 [Example 17, 2-(2-methoxyphenyl)-1-{3-[4-(3-acetylaminophenyl)piperidin-1-yl]propyl}-1H-benzimidazole] | 747
24 | COc1ccc(-c2nc3ccccc3n2CCCN2CCC(c3cccc(NC(C)=O)c3)CC2)cc1 [Example 19, 2-(4-methoxyphenyl)-1-{3-[4-(3-acetylaminophenyl)piperidin-1-yl]propyl}-1H-benzimidazole] | 9
25 | CC(=O)Nc1cccc(C2CCN(CCCn3c(-c4ccc(C(C)C)cc4)nc4ccccc43)CC2)c1 [Example 20, 2-(4-isopropylphenyl)-1-{3-[4-(3-acetylaminophenyl)piperidin-1-yl]propyl}-1H-benzimidazole] | 19
26 | CC(=O)Nc1cccc(C2CCN(CCCn3c(-c4ccc(Cl)cc4)nc4ccc(C)cc43)CC2)c1 [Example 24, 2-(4-chlorophenyl)-1-{3-[4-(3-acetylaminophenyl)piperidin-1-yl]propyl}-6-methyl-1H-benzimidazole] | 10
27 | CC(=O)Nc1cccc(C2CCN(CCCn3c(-c4ccc(Cl)cc4)nc4ccc(Cl)cc43)CC2)c1 [Example 25, 2-(4-chlorophenyl)-1-{3-[4-(3-acetylaminophenyl)piperidin-1-yl]propyl}-6-chloro-1H-benzimidazole] | 13
28 | COc1ccc2nc(-c3ccccc3)n(CCCN3CCC(c4cccc(NC(C)=O)c4)CC3)c2c1 [Example 27, 2-phenyl-1-{3-[4-(3-acetylaminophenyl)piperidin-1-yl]propyl}-6-methoxy-1H-benzimidazole] | 11
29 | CC(=O)Nc1cccc(C2CCN(CCCn3c(-c4ccccc4)nc4ccc(Cl)cc43)CC2)c1 [Example 29, 2-phenyl-1-{3-[4-(3-acetylaminophenyl)piperidin-1-yl]propyl}-6-chloro-1H-benzimidazole] | 10
30 | CC(=O)Nc1cccc(C2CCN(CCCn3c(-c4ccc(F)cc4)nc4ccc(Cl)cc43)CC2)c1 [Example 30, 2-(4-fluorophenyl)-1-{3-[4-(3-acetylaminophenyl)piperidin-1-yl]propyl}-6-chloro-1H-benzimidazole] | 13
